Assay results as given in patent publication US20260365670A1, “EGFR INHIBITORS AND USES THEREOF” (DIZAL (JIANGSU) PHARMACEUTICAL CO., LTD., priority 2022, published 2026).
Like-named read-outs stand apart in the source and are kept apart here.

Experiments:
EGFR (d746-750 C797S) = target: T1, EGFR (d746-750 C797S) (Homo sapiens, UniProt P00533, C797S/DEL746-750); assay: Inhibition of EGFR (d746-750 C797S) biochemical enzymatic activity (HTRF); details: 1 mM ATP
T1 construct: purchased signalchem
T1 sequence (P00533 with tags, fused parts or gaps DEL746-750/C797S limits assumed): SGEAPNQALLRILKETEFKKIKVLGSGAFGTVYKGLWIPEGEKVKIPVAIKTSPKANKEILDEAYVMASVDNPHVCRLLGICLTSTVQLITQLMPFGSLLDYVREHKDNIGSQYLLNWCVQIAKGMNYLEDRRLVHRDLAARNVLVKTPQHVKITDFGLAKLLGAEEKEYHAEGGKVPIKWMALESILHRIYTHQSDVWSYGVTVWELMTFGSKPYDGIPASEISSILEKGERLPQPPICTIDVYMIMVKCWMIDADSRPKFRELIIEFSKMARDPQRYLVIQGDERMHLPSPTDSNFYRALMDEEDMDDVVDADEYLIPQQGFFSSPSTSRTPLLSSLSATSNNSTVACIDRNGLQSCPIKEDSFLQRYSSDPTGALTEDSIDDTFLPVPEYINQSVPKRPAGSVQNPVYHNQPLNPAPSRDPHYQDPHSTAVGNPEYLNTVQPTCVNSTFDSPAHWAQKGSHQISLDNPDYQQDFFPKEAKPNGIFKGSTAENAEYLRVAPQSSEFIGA
Outline: (§1)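 Compounds at varying concentrations were tested against each EGFR form using 1 mM ATP and 1 μM TK Substrate-biotin. Reactions ran 1 h at room temperature in Mg2+/Mn2+ buffer with CHAPS, DTT and 0.5% DMSO. Time-resolved fluorescence gave IC50 by four-parameter fit.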

EGFR Exon19Del/T790M = target: T2, EGFR Exon19Del/T790M (Homo sapiens, UniProt P00533, DEL746-750/T790M); assay: Inhibition of EGFR Exon19Del/T790M biochemical enzymatic activity (HTRF); details: 1 mM ATP
T2 construct: purchased Carna Bio
T2 sequence (P00533 with tags, fused parts or gaps DEL746-750/T790M limits assumed): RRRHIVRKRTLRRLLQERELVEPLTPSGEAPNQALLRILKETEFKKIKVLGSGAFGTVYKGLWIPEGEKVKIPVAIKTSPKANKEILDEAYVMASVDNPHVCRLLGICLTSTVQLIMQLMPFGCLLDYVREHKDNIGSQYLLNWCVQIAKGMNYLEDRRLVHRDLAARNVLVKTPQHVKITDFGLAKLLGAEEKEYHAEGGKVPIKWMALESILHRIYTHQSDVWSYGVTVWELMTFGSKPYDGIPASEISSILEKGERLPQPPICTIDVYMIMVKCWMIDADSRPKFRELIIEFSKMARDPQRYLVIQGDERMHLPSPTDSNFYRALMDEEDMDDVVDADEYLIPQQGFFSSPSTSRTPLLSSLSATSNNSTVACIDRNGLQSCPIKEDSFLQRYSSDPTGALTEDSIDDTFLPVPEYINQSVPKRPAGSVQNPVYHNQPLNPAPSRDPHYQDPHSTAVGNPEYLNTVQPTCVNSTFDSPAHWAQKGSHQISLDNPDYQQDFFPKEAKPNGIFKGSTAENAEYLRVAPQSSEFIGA
Outline: as §1

EGFR L858R = target: T3, EGFR L858R (Homo sapiens, UniProt P00533, L858R); assay: Inhibition of EGFR L858R biochemical enzymatic activity (HTRF); details: 1 mM ATP
T3 construct: purchased Carna Bio
T3 sequence (P00533 25-1210 L858R): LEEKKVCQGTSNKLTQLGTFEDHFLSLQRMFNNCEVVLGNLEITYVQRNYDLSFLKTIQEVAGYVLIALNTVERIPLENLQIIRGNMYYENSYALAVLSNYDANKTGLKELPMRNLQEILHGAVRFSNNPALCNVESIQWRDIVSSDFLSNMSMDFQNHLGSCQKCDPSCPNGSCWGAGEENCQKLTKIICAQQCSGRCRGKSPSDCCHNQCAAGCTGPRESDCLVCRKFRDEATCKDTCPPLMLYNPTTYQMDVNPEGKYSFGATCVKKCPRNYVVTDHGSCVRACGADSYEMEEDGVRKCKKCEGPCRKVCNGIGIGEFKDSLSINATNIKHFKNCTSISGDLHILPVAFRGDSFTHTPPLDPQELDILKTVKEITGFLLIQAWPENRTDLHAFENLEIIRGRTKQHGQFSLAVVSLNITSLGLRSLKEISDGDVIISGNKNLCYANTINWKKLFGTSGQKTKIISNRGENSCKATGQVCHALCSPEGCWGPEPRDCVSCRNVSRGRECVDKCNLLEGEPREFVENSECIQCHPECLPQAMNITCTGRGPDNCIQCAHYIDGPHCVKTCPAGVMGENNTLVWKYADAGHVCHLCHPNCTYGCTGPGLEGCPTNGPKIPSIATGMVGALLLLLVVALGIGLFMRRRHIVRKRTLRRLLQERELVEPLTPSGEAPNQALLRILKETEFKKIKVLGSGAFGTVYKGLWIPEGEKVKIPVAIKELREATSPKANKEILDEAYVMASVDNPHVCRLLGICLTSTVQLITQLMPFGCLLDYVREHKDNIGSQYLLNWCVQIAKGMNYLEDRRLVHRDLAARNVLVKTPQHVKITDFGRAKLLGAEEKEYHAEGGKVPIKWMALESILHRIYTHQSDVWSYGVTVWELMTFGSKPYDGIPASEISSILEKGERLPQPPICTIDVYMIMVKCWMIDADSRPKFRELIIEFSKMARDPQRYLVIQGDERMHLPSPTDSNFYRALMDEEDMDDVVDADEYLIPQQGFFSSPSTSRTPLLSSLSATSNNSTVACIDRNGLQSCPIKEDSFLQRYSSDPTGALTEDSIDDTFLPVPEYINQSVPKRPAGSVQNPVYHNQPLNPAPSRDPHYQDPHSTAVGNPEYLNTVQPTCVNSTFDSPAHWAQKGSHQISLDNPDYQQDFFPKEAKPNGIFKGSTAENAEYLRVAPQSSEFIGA
Outline: as §1

EGFR wild type = target: T4, EGFR wild type (Homo sapiens, UniProt P00533); assay: Inhibition of EGFR wild type biochemical enzymatic activity (HTRF); details: 1 mM ATP
T4 construct: purchased Carna Bio
Outline: as §1

A-431 = assay: Cell proliferation assay, A-431 cells (GI50, Table 6); type: cell-based; details: Homo sapiens, A-431, A-431 cells
EGFR (C797S L858R) = target: T5, EGFR (C797S L858R) (Homo sapiens, UniProt P00533, C797S/L858R); assay: Inhibition of EGFR (C797S L858R) biochemical enzymatic activity (HTRF); details: 1 mM ATP
T5 construct: purchased signalchem
Outline: as §1

[1] = test system: Ba/F3 cells expressing EGFR mutations; assay: Cell proliferation assay, Ba/F3 cells expressing EGFR mutations (CellTiter-Glo, 72 hours); type: cell-based; details: Mus musculus, BaF3, 72 h
Outline: (§2)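 GI50 is the concentration giving 50% proliferation inhibition. Growth for this was normalised to a baseline viability reading taken when compound was added, and to DMSO wells. PC-9 (500 cells/well) and mutant-EGFR Ba/F3 (5000 cells/well) are treated after overnight seeding in RPMI1640-based medium.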

EGFR[T790M/C797S/L858R] = target: T6, EGFR[T790M/C797S/L858R] (Homo sapiens, UniProt P00533, C797S/L858R/T790M); assay: Inhibition of EGFR[T790M/C797S/L858R] biochemical enzymatic activity (HTRF); details: 1 mM ATP
T6 construct: purchased Carna Bio
T6 sequence (P00533 25-1210 T790M/C797S/L858R): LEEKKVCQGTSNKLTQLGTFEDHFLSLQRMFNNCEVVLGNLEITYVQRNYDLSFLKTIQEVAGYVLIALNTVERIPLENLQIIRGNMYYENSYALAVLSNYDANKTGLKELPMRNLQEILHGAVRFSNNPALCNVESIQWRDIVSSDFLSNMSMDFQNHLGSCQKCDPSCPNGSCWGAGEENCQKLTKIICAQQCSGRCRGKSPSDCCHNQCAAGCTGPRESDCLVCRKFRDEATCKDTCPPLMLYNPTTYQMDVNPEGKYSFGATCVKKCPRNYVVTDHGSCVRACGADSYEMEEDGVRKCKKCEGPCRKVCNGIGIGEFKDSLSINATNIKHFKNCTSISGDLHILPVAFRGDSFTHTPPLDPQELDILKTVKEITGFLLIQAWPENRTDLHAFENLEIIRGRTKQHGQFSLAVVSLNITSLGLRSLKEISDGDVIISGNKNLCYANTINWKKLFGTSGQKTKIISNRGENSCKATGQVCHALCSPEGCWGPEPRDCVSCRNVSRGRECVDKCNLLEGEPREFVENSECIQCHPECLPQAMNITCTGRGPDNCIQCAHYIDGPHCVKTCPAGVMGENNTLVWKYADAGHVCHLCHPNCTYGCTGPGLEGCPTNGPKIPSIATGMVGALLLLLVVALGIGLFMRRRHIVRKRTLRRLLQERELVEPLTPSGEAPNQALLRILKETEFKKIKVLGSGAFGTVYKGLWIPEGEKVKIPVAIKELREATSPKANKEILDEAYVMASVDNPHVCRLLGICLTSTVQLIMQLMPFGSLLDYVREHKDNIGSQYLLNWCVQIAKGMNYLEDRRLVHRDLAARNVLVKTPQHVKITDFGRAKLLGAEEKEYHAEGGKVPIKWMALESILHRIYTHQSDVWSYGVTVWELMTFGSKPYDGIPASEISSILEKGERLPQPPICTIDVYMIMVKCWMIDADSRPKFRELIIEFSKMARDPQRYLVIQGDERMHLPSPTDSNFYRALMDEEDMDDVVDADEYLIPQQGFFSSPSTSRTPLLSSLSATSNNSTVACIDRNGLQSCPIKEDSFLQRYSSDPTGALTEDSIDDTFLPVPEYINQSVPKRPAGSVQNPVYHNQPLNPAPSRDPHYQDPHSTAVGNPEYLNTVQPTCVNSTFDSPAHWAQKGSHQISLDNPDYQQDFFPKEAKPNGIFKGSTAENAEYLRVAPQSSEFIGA
Outline: as §1

PC-9 = assay: Cell proliferation assay, PC-9 cells (CellTiter-Glo, 72 hours); type: cell-based; details: Homo sapiens, PC-9, 72 h, PC9 cells, read-out: GI50 PC9
Outline: as §2

EGFR L858R/T790M = target: T7, EGFR L858R/T790M (Homo sapiens, UniProt P00533, L858R/T790M); assay: Inhibition of EGFR L858R/T790M biochemical enzymatic activity (HTRF); details: 1 mM ATP
T7 construct: purchased Carna Bio
Outline: as §1

[2] = target: T8, EGFR[T790M/C797S/d746-750] (Homo sapiens, UniProt P00533, C797S/DEL746-750/T790M); assay: Inhibition of EGFR[T790M/C797S/d746-750] biochemical enzymatic activity (HTRF)
T8 construct: purchased Carna Bio
T8 sequence (P00533 with tags, fused parts or gaps DEL746-750/T790M/C797S limits assumed): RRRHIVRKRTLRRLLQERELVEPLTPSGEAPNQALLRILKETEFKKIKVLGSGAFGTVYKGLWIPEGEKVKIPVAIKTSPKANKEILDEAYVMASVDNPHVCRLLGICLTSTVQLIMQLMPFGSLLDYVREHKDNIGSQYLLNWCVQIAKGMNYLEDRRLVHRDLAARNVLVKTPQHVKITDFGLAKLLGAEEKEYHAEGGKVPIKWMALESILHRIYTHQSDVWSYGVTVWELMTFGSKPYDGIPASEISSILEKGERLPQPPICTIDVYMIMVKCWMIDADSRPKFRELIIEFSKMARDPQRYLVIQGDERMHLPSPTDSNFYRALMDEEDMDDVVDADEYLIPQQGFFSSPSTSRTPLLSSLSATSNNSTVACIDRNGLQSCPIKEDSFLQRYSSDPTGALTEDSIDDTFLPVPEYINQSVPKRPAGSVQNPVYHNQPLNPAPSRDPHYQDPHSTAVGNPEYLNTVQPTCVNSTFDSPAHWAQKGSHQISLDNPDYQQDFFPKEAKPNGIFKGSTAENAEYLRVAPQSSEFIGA
Outline: as §1

EGFR Exon19Del = target: T9, EGFR Exon19Del (Homo sapiens, UniProt P00533, DEL746-750); assay: Inhibition of EGFR Exon19Del biochemical enzymatic activity (HTRF); details: read-out: IC50 @Del19
T9 construct: purchased Carna Bio
T9 sequence (P00533 with tags, fused parts or gaps DEL746-750 limits assumed): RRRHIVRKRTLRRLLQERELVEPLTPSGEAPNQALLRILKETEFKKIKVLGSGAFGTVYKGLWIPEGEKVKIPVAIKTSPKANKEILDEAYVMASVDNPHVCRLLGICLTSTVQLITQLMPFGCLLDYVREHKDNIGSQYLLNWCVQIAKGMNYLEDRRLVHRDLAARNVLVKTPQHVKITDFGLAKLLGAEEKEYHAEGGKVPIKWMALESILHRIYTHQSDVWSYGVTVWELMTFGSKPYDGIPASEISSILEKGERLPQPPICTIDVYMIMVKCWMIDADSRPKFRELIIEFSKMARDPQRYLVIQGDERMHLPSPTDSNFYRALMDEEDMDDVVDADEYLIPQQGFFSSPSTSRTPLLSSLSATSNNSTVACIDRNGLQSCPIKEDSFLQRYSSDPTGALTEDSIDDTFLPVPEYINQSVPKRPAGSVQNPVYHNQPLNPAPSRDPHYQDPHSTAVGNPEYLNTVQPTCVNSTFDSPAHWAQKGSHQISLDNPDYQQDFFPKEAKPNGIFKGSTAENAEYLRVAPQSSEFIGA
Outline: as §1

[3] = EGFR (d746-750 C797S), 1 h at room temperature, read-out: IC50 @Del19-C797S
[4] = EGFR Exon19Del/T790M, 1 h at room temperature, read-out: IC50 @Del19-T790M
[5] = 1 h at room temperature, read-out: IC50 @L858R
[6] = EGFR wild type, 1 h at room temperature, read-out: IC50 @WT
[7] = EGFR (C797S L858R), 1 h at room temperature, read-out: IC50 @L858-C797S
[8] = BaF3 cells, EGFR DEL19 - C797S, read-out: GI50 DEL19 - C797S/BaF3
[9] = BaF3 cells, EGFR DEL19 - T790-C797S, read-out: GI50 DEL19 - T790-C797S/BaF3
[10] = BaF3 cells, EGFR L858R - C797S, read-out: GI50 L858R - C797S/BaF3
[11] = BaF3 cells, EGFR L858R - T790-C797S, read-out: GI50 L858R - T790-C797S/BaF3
[12] = BaF3 cells, EGFR L858R - T790M, read-out: GI50 L858R - T790M/BaF3
[13] = BaF3 cells, EGFR L858R, read-out: GI50 L858R/BaF3
[14] = EGFR DEL19 - T790M, read-out: GI50 DEL19 - T790M
[15] = EGFR[T790M/C797S/L858R], 1 h at room temperature, read-out: IC50 @T790M- C797S - L858R
[16] = EGFR L858R/T790M, 1 h at room temperature, read-out: IC50 @L858R-T790M
[17] = EGFR[T790M/C797S/d746-750], 1 mM ATP, 1 h at room temperature, read-out: IC50 @T790M - C797S - Del19
[18] = EGFR Exon19Del, 1 mM ATP, 1 h at room temperature
[19] = EGFR Del19-C797S, 1 h, room temperature, read-out: IC50 (nM) @Del19-C797S
[20] = EGFR Del19-T790M, 1 h, room temperature, read-out: IC50 (nM) @Del19-T790M
[21] = 1 h, room temperature, read-out: IC50 (nM) @L858R
[22] = EGFR WT, 1 h, room temperature, read-out: IC50 (nM) @WT
[23] = EGFR L858-C797S, 1 h, room temperature, read-out: IC50 (nM) @L858-C797S
[24] = EGFR T790M-C797S-L858R, 1 h, room temperature, read-out: IC50 (nM) @T790M- C797S - L858R
[25] = EGFR L858R-T790M, 1 h, room temperature, read-out: IC50 (nM) @L858R-T790M
[26] = EGFR T790M-C797S-Del19, 1 mM ATP, 1 h, room temperature, read-out: IC50 (nM) @T790M - C797S - Del19
[27] = EGFR Del19, 1 mM ATP, 1 h, room temperature

IC50 (EGFR (d746-750 C797S); [3])	IC50 (EGFR Exon19Del/T790M; [4])	IC50 (EGFR L858R; [5])	IC50 (EGFR wild type; [6])	GI50 (A-431)	IC50 (EGFR (C797S L858R); [7])	GI50 [1, 8]	GI50 [1, 9]	GI50 [1, 10]	GI50 [1, 11]	GI50 [1, 12]	GI50 [1, 13]	GI50 [1, 14]	IC50 (EGFR[T790M/C797S/L858R]; [15])	GI50 (PC-9)	IC50 (EGFR L858R/T790M; [16])	IC50 [2, 17]	IC50 (EGFR Exon19Del; [18])	IC50 (EGFR (d746-750 C797S); [19])	IC50 (EGFR Exon19Del/T790M; [20])	also measured	SMILES
9.4 nM	6.6 nM	282 nM	> 5000 nM	7.73 µM	126 nM	0.024 µM	0.008 µM	0.101 µM	0.004 µM	0.018 µM	0.167 µM	0.007 µM	4.2 nM	0.178 µM	7.7 nM	3.3 nM	0.02 µM				Cc1cc2cc(n1)-c1cnn(C)c1OCCN1CC3CCC(CC3)(C1)n1c(nc3ccc(N4CCN(C(C)C)CC4)cc31)NC2=O [Example B39]
				4.68 µM		0.0085 µM	0.036 µM	0.038 µM	0.021 µM	0.052 µM	0.0072 µM	0.026 µM		0.034 µM				9.2 nM	10 nM	IC50 (EGFR L858R; [21]): 118 nM; IC50 (EGFR wild type; [22]): 4880 nM; IC50 (EGFR (C797S L858R); [23]): 69 nM; IC50 (EGFR[T790M/C797S/L858R]; [24]): 39 nM; IC50 (EGFR L858R/T790M; [25]): 211 nM; IC50 [2, 26]: 6.1 nM; IC50 (EGFR Exon19Del; [27]): 0.015 µM	CN1CCC2CN(c3ccc4nc5n(c4c3)C34CCC(CC3)CN(CCOc3c(cnn3C)-c3cc(cn(C)c3=O)C(=O)N5)C4)CC21 (centres unmarked) [Example A127]
				2.1 µM		0.0032 µM	0.022 µM	0.019 µM	0.013 µM	0.082 µM	0.0041 µM			0.022 µM				3.5 nM	7.6 nM	IC50 (EGFR L858R; [21]): 48 nM; IC50 (EGFR wild type; [22]): 1420 nM; IC50 (EGFR (C797S L858R); [23]): 25 nM; IC50 (EGFR[T790M/C797S/L858R]; [24]): 8.1 nM; IC50 (EGFR L858R/T790M; [25]): 39 nM; IC50 [2, 26]: 5.2 nM; IC50 (EGFR Exon19Del; [27]): 0.0068 µM	CN1CCC12CCN(c1ccc3nc4n(c3c1)C13CCC(CC1)CN(CCOc1c(cnn1C)-c1cc(cn(C)c1=O)C(=O)N4)C3)CC2 [Example A122]
20 nM	12 nM	421 nM	> 5000 nM	4.52 µM	203 nM	0.011 µM	0.004 µM	0.083 µM	0.009 µM	0.017 µM	0.064 µM	0.004 µM	8.4 nM	0.086 µM	16 nM	5.4 nM	0.039 µM				Cc1cc2cc(n1)-c1cnn(C)c1OCCN1CC3CCC(CC3)(C1)n1c(nc3ccc(N4CC5CN(C)CC5C4)cc31)NC2=O (centres unmarked) [Example B34]
